Assay results taken from US12497642B2, “Incorporation of unnatural nucleotides and methods of use in vivo thereof” (THE SCRIPPS RESEARCH INSTITUTE, priority 2017, dated 2025).
Several values for one entry are separate records, joined by “and”; a condition that tells them apart may be missing. Equal values may be shown once.

Experiments:
[1] = test system: semi-synthetic organism (SSO) (strain YZ3); test: Replication and UBP retention in vivo in the semi-synthetic organism (streptavidin biotin shift, PAGE), Example 1; assay type: cell-based, Escherichia coli; conditions: for UBP retention in vivo, in words: discussion
Description: All bacteria were cultured in 100 μL of liquid 2×YT media (casein peptone 16 g/L, yeast extract 10 g/L, NaCl 5 g/L) supplemented with potassium phosphate (50 mM, pH 7) in 96-well microwell plates. When noted, antibiotics were used at the following concentrations: chloramphenicol, 5 μg/mL; ampicillin, 100 μg/mL. Cell growth, indicated as OD600, was measured using a Perkin Elmer EnVision 2103 Multilabel Reader with a 590/20 nm filter. Unless otherwise stated, molecular biology reagents were purchased from New England Biolabs (Ipswich, MA) and were used according to the manufacturer's protocols. As necessary, purification of nucleic acids was accomplished by micro-elution columns (Zymo Research Corp; Irvine, CA). All natural oligonucleotides were purchased from IDT (San Diego, CA), and oligonucleotides containing dNaM were synthesized by Biosearch Technologies (Petaluma, CA) with purification by reverse phase cartridge. Unnatural nucleotide triphosphates were prepared, and confirmed by MALDI-TOF and UV/Vis.
Plasmids containing the dNaM-dTPT3 UBP were prepared and used to transform the semi-synthetic organism (SSO). To create a template for in vivo replication assays, Golden Gate assembly was used to construct a derivative of the pUC19 plasmid in which a single dNaM-dTPT3 UBP was embedded within the TK1 sequence ([…]; […]), a context within which the UBP is well replicated in the SSO. Plasmids were then used to transform the SSO (strain YZ3). Following transformation, the SSO was allowed to recover at 37° C. for 1 h in media containing dNaMTP (125 μM) and dTPT3TP (25 μM). Cells were pelleted by centrifugation, resuspended in fresh media lacking unnatural triphosphates, split into 100-μL aliquots and then used to inoculate cultures containing different pairs of unnatural triphosphates at the specified concentrations. When the cell density reached an OD600 of ˜0.7, cells were pelleted and plasmids were recovered and PCR amplified with d5SICSTP and a biotinylated analog of dNaMTP, and UBP retention was determined by comparing the intensity of the streptavidin shifted and unshifted bands via PAGE.

[2] = target: T1, Klenow fragment of E. coli DNA polymerase I (Escherichia coli, UniProt P00582); test: Steady-state kinetic assay of unnatural triphosphate insertion; assay type: biochemical; conditions: insertion opposite dY = dA in template
T1 construct: the Klenow fragment of E. coli DNA polymerase I
T1 sequence (P00582 324-928): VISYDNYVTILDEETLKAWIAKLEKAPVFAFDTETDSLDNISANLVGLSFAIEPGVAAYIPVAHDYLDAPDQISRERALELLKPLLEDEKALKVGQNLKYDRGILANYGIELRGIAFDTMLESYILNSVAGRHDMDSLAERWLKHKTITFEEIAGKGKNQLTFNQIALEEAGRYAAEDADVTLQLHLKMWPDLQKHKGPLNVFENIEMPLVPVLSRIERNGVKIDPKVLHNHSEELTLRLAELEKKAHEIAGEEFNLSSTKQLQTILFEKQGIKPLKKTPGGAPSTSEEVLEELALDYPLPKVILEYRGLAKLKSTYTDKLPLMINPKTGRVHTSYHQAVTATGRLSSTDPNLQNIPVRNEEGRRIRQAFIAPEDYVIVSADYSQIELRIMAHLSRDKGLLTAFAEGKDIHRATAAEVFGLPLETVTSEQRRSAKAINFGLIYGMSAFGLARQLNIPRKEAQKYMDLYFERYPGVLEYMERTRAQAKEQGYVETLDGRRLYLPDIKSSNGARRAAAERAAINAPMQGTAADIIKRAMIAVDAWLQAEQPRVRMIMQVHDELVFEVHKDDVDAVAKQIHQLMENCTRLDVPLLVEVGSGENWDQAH

[3] = context 1, dNaMTP 125 μM, dTPT3TP analog 125 μM
[4] = context 2 (AXA), dTPT3TP 2.5 μM, dNaMTP analog 2.5 μM
[5] = context 2 (AXA), dTPT3TP 2.5 μM, dNaMTP analog 10 μM
[6] = context 2 (AXA), dTPT3TP 2.5 μM, dNaMTP analog 25 μM
[7] = context 2 (AXA), dTPT3TP 10 μM, dNaMTP analog 2.5 μM
[8] = context 2 (AXA), dTPT3TP 10 μM, dNaMTP analog 10 μM
[9] = context 2 (AXA), dTPT3TP 10 μM, dNaMTP analog 25 μM
[10] = context 2 (AXA), dTPT3TP 25 μM, dNaMTP analog 2.5 μM
[11] = context 2 (AXA), dTPT3TP 25 μM, dNaMTP analog 10 μM
[12] = context 2 (AXA), dTPT3TP 25 μM, dNaMTP analog 25 μM
[13] = context 2 (AXA), paired with dSICSTP 10 μM, dNaMTP analog 25 μM
[14] = context 3 (CXC), dTPT3TP 2.5 μM, dNaMTP analog 2.5 μM
[15] = context 3 (CXC), dTPT3TP 2.5 μM, dNaMTP analog 10 μM
[16] = context 3 (CXC), dTPT3TP 2.5 μM, dNaMTP analog 25 μM
[17] = context 3 (CXC), dTPT3TP 10 μM, dNaMTP analog 2.5 μM
[18] = context 3 (CXC), dTPT3TP 10 μM, dNaMTP analog 10 μM
[19] = context 3 (CXC), dTPT3TP 10 μM, dNaMTP analog 25 μM
[20] = context 3 (CXC), dTPT3TP 25 μM, dNaMTP analog 2.5 μM
[21] = context 3 (CXC), dTPT3TP 25 μM, dNaMTP analog 10 μM
[22] = context 3 (CXC), dTPT3TP 25 μM, dNaMTP analog 25 μM
[23] = dNaMTP analog paired with dTPT3TP

SMILES | UBP retention [1, 3] | UBP retention (%) [1, 4] | UBP retention (%) [1, 5] | UBP retention (%) [1, 6] | UBP retention (%) [1, 7] | UBP retention (%) [1, 8] | UBP retention (%) [1, 9] | UBP retention (%) [1, 10] | UBP retention (%) [1, 11] | UBP retention (%) [1, 12] | UBP retention [1, 13] | UBP retention (%) [1, 14] | UBP retention (%) [1, 15] | UBP retention (%) [1, 16] | UBP retention (%) [1, 17] | UBP retention (%) [1, 18] | UBP retention (%) [1, 19] | UBP retention (%) [1, 20] | UBP retention (%) [1, 21] | UBP retention (%) [1, 22] | other results
Cc1ccc2ccn(C3CC(O)C(COP(=O)(O)OP(=O)(O)OP(=O)(O)O)O3)c(=S)c2c1 (stereo not shown) [d4SICS] | significant UBP retention | – | – | – | – | – | – | – | – | – | – | – | – | – | – | – | – | – | – | – | –
COc1cc(C)c(F)cc1C1CC(O)C(COP(=O)(O)OP(=O)(O)OP(=O)(O)O)O1 (stereo not shown) [d5FMTP] | – | 47 ± 14% | 61 ± 27% | 75 ± 6% | 69 ± 6% | 83 ± 5% | 87 ± 12% | 76 ± 9% | 95 ± 3% | 90 ± 7% | 68% | 9 ± 6% | 10 ± 5% | 11 ± 8% | 6 ± 4% | 14 ± 5% | 27 ± 14% | 14 ± 3% | 33 ± 16% | 49% and 49 ± 27% | –
COc1cc(C#N)ccc1C1CC(O)C(COP(=O)(O)OP(=O)(O)OP(=O)(O)O)O1 (stereo not shown) [dCNMOTP] | – | 92 ± 4% | 82 ± 24% | 91 ± 10% | 88 ± 9% | 91 ± 3% | 95 ± 2% | 103 ± 7% | 103 ± 1% | 101 ± 10% | 59% | 9 ± 1% | 22 ± 10% | 31 ± 14% | 13 ± 5% | 28 ± 7% | 35 ± 8% | 22 ± 7% | 25 ± 22% | 42% and 42 ± 18% | UBP retention (%) ([1]; Table 5, sequence context 1 (AXT), dTPT3TP 25 μM, dNaMTP or dCNMOTP 25 μM): 98%; UBP retention (%) ([1]; Table 5, sequence context 1 (AXT), dTPT3TP 25 μM, dNaMTP or dCNMOTP 25 μM, listed as dCNMO): 98 ± 7%; UBP retention (%) ([1]; Table 5, sequence context 1 (AXT), dTPT3TP 25 μM, dNaMTP or dCNMOTP 125 μM): 99 ± 8%; UBP retention (%) ([1]; Table 5, sequence context 2 (AXA), dTPT3TP 25 μM, dNaMTP or dCNMOTP 25 μM): 101 ± 10%; UBP retention (%) ([1]; Table 5, sequence context 2 (AXA), dTPT3TP 25 μM, dNaMTP or dCNMOTP 125 μM): 100 ± 10%; UBP retention (%) ([1]; Table 5, sequence context 3 (CXC), dTPT3TP 25 μM, dNaMTP or dCNMOTP 25 μM): 42%; UBP retention (%) ([1]; Table 5, sequence context 3 (CXC), dTPT3TP 25 μM, dNaMTP or dCNMOTP 25 μM, listed as dCNMO): 42 ± 18%; UBP retention (%) ([1]; Table 5, sequence context 3 (CXC), dTPT3TP 25 μM, dNaMTP or dCNMOTP 125 μM): 65%; UBP retention (%) ([1]; Table 5, sequence context 3 (CXC), dTPT3TP 25 μM, dNaMTP or dCNMOTP 125 μM, listed as dCNMO): 65 ± 7%; UBP retention (%) ([1]; Table 5, sequence context 4 (CXG), dTPT3TP 25 μM, dNaMTP or dCNMOTP 25 μM): 14 ± 5%; UBP retention (%) ([1]; Table 5, sequence context 4 (CXG), dTPT3TP 25 μM, dNaMTP or dCNMOTP 125 μM): 24%; UBP retention (%) ([1]; Table 5, sequence context 4 (CXG), dTPT3TP 25 μM, dNaMTP or dCNMOTP 125 μM, listed as dCNMO): 24 ± 13%
COc1cc(Cl)ccc1C1CC(O)C(COP(=O)(O)OP(=O)(O)OP(=O)(O)O)O1 (stereo not shown) [dClMOTP] | – | 73 ± 10% | 84 ± 7% | 86 ± 6% | 83 ± 9% | 89 ± 5% | 96 ± 2% | 80 ± 20% | 92 ± 4% | 98 ± 4% | 61% | 9 ± 2% | 7 ± 4% | 12 ± 2% | 9 ± 1% | 15 ± 2% | 14 ± 5% | 8 ± 4% | 20 ± 7% | 21% | UBP retention (%) ([1]; context 3 (CXC), dTPT3TP 25 μM, dNaMTP analog 25 μM, listed as dCIMOTP): 21 ± 14%
C#Cc1cc(OC)c(C2CC(O)C(COP(=O)(O)OP(=O)(O)OP(=O)(O)O)O2)cc1F (stereo not shown) [dFEMOTP] | – | – | – | – | – | – | – | – | – | – | – | – | – | – | – | – | – | – | – | – | UBP retention in vivo, in words [1, 23]: well retained in vivo when supplemented at high concentrations
Cc1cc2c(=S)n(C3CC(O)C(COP(=O)(O)OP(=O)(O)OP(=O)(O)O)O3)ccc2o1 (stereo not shown) [dFPT1] | significant UBP retention | – | – | – | – | – | – | – | – | – | – | – | – | – | – | – | – | – | – | – | –
COc1cc(C)ccc1C1CC(O)C(COP(=O)(O)OP(=O)(O)OP(=O)(O)O)O1 (stereo not shown) [dMMO2TP] | – | 17 ± 8% | 54 ± 19% | 47 ± 20% | 68 ± 16% | 67 ± 16% | 88 ± 7% | 63 ± 31% | 86 ± 11% | 90 ± 4% | 19% | 5 ± 3% | 10 ± 3% | 13 ± 4% | 9 ± 3% | 16 ± 10% | 22 ± 10% | 19 ± 8% | 36 ± 12% | 45% and 45 ± 20% | –
O=P(O)(O)OP(=O)(O)OP(=O)(O)OCC1OC(n2ccc3ccccc3c2=S)CC1O (stereo not shown) [dSICSTP] | significant UBP retention | – | – | – | – | – | – | – | – | – | – | – | – | – | – | – | – | – | – | – | –
O=P(O)(O)OP(=O)(O)OP(=O)(O)OCC1OC(n2ccc3ncccc3c2=S)CC1O (stereo not shown) [dSNICS] | significant UBP retention | – | – | – | – | – | – | – | – | – | – | – | – | – | – | – | – | – | – | – | UBP retention in vivo, in words ([1]; dTPT3TP analog paired with dNaMTP): moderate retention at both low and high concentrations
Cc1cc2c(=S)n(C3CC(O)C(COP(=O)(O)OP(=O)(O)OP(=O)(O)O)O3)ccc2s1 (stereo not shown) [dTPT1] | significant UBP retention | – | – | – | – | – | – | – | – | – | – | – | – | – | – | – | – | – | – | – | –
O=P(O)(O)OP(=O)(O)OP(=O)(O)OCC1OC(n2ccc3ccsc3c2=S)CC1O (stereo not shown) [dTPT3TP] | significant UBP retention | – | – | – | – | – | – | – | – | – | – | – | – | – | – | – | – | – | – | – | UBP retention ([1]; context 2 (AXA), dTPT3TP 10 μM paired with each of the four dNaMTP analogs at 25 μM): > 87%
Cc1cn([C@H]2C[C@H](O)[C@@H](COP(=O)(O)OP(=O)(O)OP(=O)(O)O)O2)c(=O)[nH]c1=O [dTTP, reference compound] | – | – | – | – | – | – | – | – | – | – | – | – | – | – | – | – | – | – | – | – | kcat [2]: 0.085 s⁻¹ and 0.0853 ± 0.0127 s⁻¹
COc1cc(N=[N+]=[N-])ccc1C1CC(O)C(COP(=O)(O)OP(=O)(O)OP(=O)(O)O)O1 (stereo not shown) [dZMOTP] | – | – | – | – | – | – | – | – | – | – | – | – | – | – | – | – | – | – | – | – | UBP retention in vivo, in words [1, 23]: well retained in vivo when supplemented at high concentrations
